How the values were obtained:
[1] = test system: Bak−/− single knockout MEFs; assay: MEF cell death, propidium iodide flow cytometry; format: cell-based, mouse; settings: increasing concentrations, 15 h
Procedure: (§1) MEF cells, including wild-type, Bax/Bak double knockout, Bax−/− single knockout, and Bak−/− single knockout were tested and characterized (Supplementary Fig. S3). The cells were cultured in DMEM (Life Technologies), supplemented with 10% fetal bovine serum (FBS) (Thermo Scientific HyClone) and 1% Penicillin/streptomycin solution (Life Technologies). The retrovirally transduced lymphoma cells isolated from Eμ-myc transgenic mice were provided by Ricky W. Johnstone at the University of Melbourne, Melbourne, Australia and cultured as previously described[37],[65].
(§2) MEFs were seeded in 24-well plates at 0.5 × 10^5 cells/well, left to adhere for 5 hours and then treated for 15 hours with increasing concentrations of the compounds. The cells were harvested, washed with phosphate-buffered saline (PBS) and stained with 0.025 mg/ml propidium iodide (MP Biomedicals). The percentage of the propidium iodide positive population was determined by flow cytometry and calculated using WinList 3.0.

wild-type MEFs = assay: MEF cell death, propidium iodide flow cytometry; format: cell-based, mouse; settings: increasing concentrations, 15 h
Procedure: as §1, §2

[2] = test system: Bax/Bak double knockout (DKO) MEFs; assay: MEF cell death, propidium iodide flow cytometry; format: cell-based, mouse; settings: increasing concentrations, 15 h
Procedure: as §1, §2

[3] = test system: Bax−/− single knockout MEFs; assay: MEF cell death, propidium iodide flow cytometry; format: cell-based, mouse; settings: increasing concentrations, 15 h
Procedure: as §1, §2

[4] = test system: Eµ-myc lymphoma cells overexpressing Mcl-1; assay: Eµ-myc lymphoma cell viability, flow cytometry; format: cell-based, mice; settings: increasing concentrations, 15 h
Procedure: as §1
(§3) The Mcl-1, Bcl-2, and Bcl-xL retroviral transduced lymphoma Eμ-myc cells were seeded in 12-well plates at 0.5 × 10^6 cells/well. […] The cells were harvested and stained with violet LIVE/DEAD Fixable Dead Cell Stain Kit (Invitrogen) according to manufacturer’s protocol. The percentage of fluorescent positive cells was determined by flow cytometry and calculated using WinList 3.0.

[5] = test system: Eµ-myc lymphoma cells overexpressing Bcl-2; assay: Eµ-myc lymphoma cell viability, flow cytometry; format: cell-based, mice; settings: increasing concentrations
Procedure: as §1, §3

[6] = test system: Eµ-myc lymphoma cells overexpressing Bcl-xL; assay: Eµ-myc lymphoma cell viability, flow cytometry; format: cell-based, mice; settings: increasing concentrations, 15 h
Procedure: as §1, §3

Mcl-1/Noxa interaction = test system: Mcl-1/Noxa interaction; design: method as in PubChem BioAssay AID 1417; settings: Dose Response Confirmation for Mcl-1/Noxa Interaction Inhibitors; ref PubChem BioAssay AID 1417; cited from earlier work
Bfl-1 = biological target: T1, Bfl-1 (Homo sapiens, UniProt Q16548); assay: FP-based competitive binding assay with FAM-Bid; settings: Bfl-1
T1 construct: Bf l-1 (residues 1-151); His tag (pHis-TEV vector) (N, cleaved yes); made in house; host or cells: E. coli BL21 (DE3)
T1 sequence (Q16548 1-151): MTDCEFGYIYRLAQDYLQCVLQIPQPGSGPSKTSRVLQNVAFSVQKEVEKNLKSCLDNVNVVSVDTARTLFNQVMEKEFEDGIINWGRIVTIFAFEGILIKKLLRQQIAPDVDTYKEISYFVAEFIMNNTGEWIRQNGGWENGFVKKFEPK
Procedure: (§4) FP-based binding assays were developed and optimized to determine the binding affinities of inhibitors to the recombinant Mcl-1, Bcl-2, Bcl-xL, and Bfl-1, proteins. […] The fluorescent Bid probe was fixed at 2 nM for all assays, except for Bfl-1, where 1 nM was used. 5 μL of the tested compound in DMSO and 120 μL of protein/probe complex in the assay buffer were added to assay plates (Corning #3792), incubated at room temperature for 3 h, and the polarization values (mP) were measured at an excitation wavelength of 485 nm and an emission wavelength of 530 nm using the plate reader Synergy H1 Hybrid, BioTek. IC50 values were determined by nonlinear regression fitting of the competition curves (GraphPad Prism 6.0 Software). The Ki values were calculated as described previously.
(§5) 1. List of compounds purchased from vendors
(§6) Compound s 5, 6, 7, 8 and S3, S4, S5, S6 S7, S8, S9, S10, S17 were purchased from […]
(§7) Compound s 9, 10, 11 and S11, S12, S13 were purchased from I nterbioscreen […]
(§8) His-tagged proteins containing human Mcl-1 (residues 171–323), the isoform 2 construct of the human Bcl-2 [Bcl2-2 construct for protein production starts with the Bcl2 sequence of 1-34 a a, followed by the Bcl-xL seq uence of 35-50 aa, and ends with the Bcl-2 sequenc e of 92-202aa.], Bcl-xL (Human Bcl-xL protein, which has an internal deletion for the 45 -85 amino acid residues and a C -terminal truncation for the amino acid residues 212-233), and Bf l-1 (residues 1-151), were expres sed from the pHis -TEV vector (a modified pET vector) in E. coli BL21 (DE3) cells. Cells were grown at 37 °C in 2×YT containing antibiotics to an OD600 density of 1.5, 1 and 0.8 for Mcl-1, Bcl-xL and Bcl-2 respectively. Protein expression wa s induced by 0 .4 mM IPTG at 20 °C overnight for all proteins except for Bf l-1 which was e xpressed at 3 7 °C for four hours . Cells were lysed in 20 mM HEPES pH 7.5, 200 mM NaCl, 0.1% βME with Leupeptin/Aprotinin (Mcl-1), 25mM Tris pH 8.5, 200mM NaCl (Bcl-2), 50mM Tris pH 7.5, 200 mM NaCl (Bcl-xL) and 50 mM Tris pH 8, 500 mM NaCl, 0. 1% βME with Leupeptin/Aprotinin (Bf l-1). All

Mcl-1 protein [7] = biological target: T2, Mcl-1 protein (Homo sapiens, UniProt Q07820); assay: FP-based competitive binding assay with fluorescent labelled Bid BH3 peptide; settings: competition with fluorescent Bid probe 2 nM, 20 nM Mcl-1 for purchased compounds, 10 nM for synthesized library
T2 construct: human Mcl-1 (residues 171–323); His tag (pHis-TEV vector) (N, cleaved yes); made in house; host or cells: E. coli BL21 (DE3)
T2 sequence (Q07820 171-323): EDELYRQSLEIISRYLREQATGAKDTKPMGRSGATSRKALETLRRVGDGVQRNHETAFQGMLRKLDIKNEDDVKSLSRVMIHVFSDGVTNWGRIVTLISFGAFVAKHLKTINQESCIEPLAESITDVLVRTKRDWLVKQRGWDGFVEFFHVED
Procedure: as §4, §5, §6, §7
as §8, with “All […]” for “All”
proteins were purified from the soluble fraction using Ni-NTA resin (QIAGEN), following the manufacturer’s instructions. For purification of TEV-cleaved protein, the amino-terminal His tag was cleaved by incubation with TEV protease and the protein was further purified by anion exchange (Source Q) and gel filtration chromatography (Superdex 75, Amersham Biosciences) in 20mM HEPES pH 7.0, 50 mM NaCl (Mcl-1), […]
NaCl, 0.1% βME (Bcl-xL) and 25 mM Tris pH 7.5, 150 mM NaCl, 25% Glycerol, 0.1% βME ( Bf l-1). His-tagged Mcl-1 protein was used for TR-FRET assay and HSQC-NMR.
His-TEV cleaved Mcl-1, Bcl-2, Bcl-xL, and Bf l-1 were used in fluorescent polarization and surface plasmon resonance binding assays.
Mutant Mcl-1 protein wa s prepared by the QuikChange site -directed mutagenesi s method (Stratagene) , where Arg263 was mutated to Ala. The R263A expression pla smid was transformed into Rosetta2 DE3 cells and purified by the same method as the wildtype protein. Cultures were grown to an OD 600 of 1. 5 at 37 °C in Terrific Broth, induced with 0. 4 mM IPTG, and express ed overnight at 20 °C. The follow-up purification was performed the same way as was for Mcl-1 wild-type recombinant

Mcl-1 protein [8] = biological target: T2, Mcl-1 protein; assay: SPR-based solution competitive binding assay, immobilized biotin-labelled Bim BH3 peptide; settings: Mcl-1 20 nM; competition with immobilized Bim BH3 peptide
Procedure: The solution competitive SPR-based assay was performed on Biacore 2000 in a similar way as was already reported. Briefly, N terminal biotin-labelled Bim BH3 peptide (141–166 amino acids) was immobilized on streptavidin (SA) chip giving a density of 800 RU (Response Units). The pre-incubated Mcl-1 protein (20 nM) with tested small-molecule inhibitors for at least 30 min was injected over the surfaces of the chip using assay buffer HBS-P (GE, #BR100368). Response units were measured at 15 s in the dissociation phase, and IC50 values were determined by nonlinear least-squares analysis using GraphPad Prism 6.0 software.

| SMILES | cell death in Bak−/− MEFs [1] | cell death in wild-type MEFs (wild-type MEFs) | cell death in Bax/Bak DKO MEFs [2] | cell death in Bax−/− MEFs [3] | killing of Eµ-myc cells overexpressing Mcl-1 [4] | effect on Eµ-myc cells overexpressing Bcl-2 [5] | effect on Eµ-myc cells overexpressing Bcl-xL [6] | IC50 (Mcl-1/Noxa interaction) [µM] | IC50 (Bfl-1) [µM] | IC50 (Mcl-1 protein [7]) [µM] | IC50 (Mcl-1 protein [8]) [µM] |
| --- | --- | --- | --- | --- | --- | --- | --- | --- | --- | --- | --- |
| Cc1c(-c2c(-c3ccc(F)o3)sc3ncnc(OC(Cc4ccccc4OCc4ccnn4CC(F)(F)F)C(=O)O)c23)ccc(OCCN2CCN(C)CC2)c1Cl (centres unmarked) [Compound S63845, reference compound] | not | induces cell death | not | not | selectively killing | sparing | sparing |  |  |  |  |
| CCOc1ccc(C(=O)Nc2cc(NC(=O)c3ccc(OCC)c(Cl)c3)cc(C(=O)O)c2)cc1Cl [Compound 3] |  |  |  |  |  |  |  | 14.3 | 2.5 ± 0.2 | 9.6 ± 2.5 | 21.3 ± 5.4 |
| Cc1ccc2nc(N3C(=O)C(O)=C(C(=O)c4cc5ccccc5o4)C3c3cccs3)sc2c1 (centres unmarked) [Compound 4] |  |  |  |  |  |  |  | 2.4 |  | 2.4 ± 1.1 | 4.5 ± 0.3 |

Reference: publication PMC6033896, “Discovery of Mcl-1 inhibitors from integrated high throughput and virtual screening” (Scientific Reports, 2018)
